Structures can show the parent of a compound that is named as a salt.
What was measured:
[1] = target: human LSD1 (Homo sapiens (Human), UniProt O60341); experiment: Experiment 1B: in vitro LSD1 enzyme activity, enzyme-coupled fluorescence (HRP/Amplex Red), H3(1-21)K4me2 peptide 10 μM (Reaction Biology); assay type: biochemical; conditions: histone H3(1-21)K4me2 peptide 10 μM
Description: Experiment 1B: Evaluation of Enzyme Activity
Testing unit: Reaction Biology Corp., USA.
The purpose of the assay was to test the in vitro inhibitory activity of the compounds against LSD1. The enzyme used in the assay was human LSD1, and the standard substrate was histone H3(1-21)K4me2 peptide (10 μM). The activity of the compounds was determined by the enzyme-coupling fluorescent method by the combined detection of H2O2 generated after the reaction of LSD1 by horseradish peroxidase (HRP) and the fluorescent reagent Amplex Red. Starting from 10 μM, the compounds were 3-fold diluted to detect the IC50 values of the compounds at 10 concentrations. The enzyme and substrate were incubated for 30 minutes before the compound was added to the substrate to start the reaction. Fluorescence detector: EnVision, excitation wavelength: Ex/Em=535/590 nM.

[2] = test system: NCI-H1417 cells; experiment: Experiment 2: inhibition of NCI-H1417 cell proliferation (CellTiter-Glo, 10 days); assay type: cell-based; conditions: Homo sapiens, 240 h, 10 days incubation
Description: Experiment 2: Evaluation of Inhibitory Activity on NCI-H1417 Cell Proliferation
Experimental purpose: To test the inhibitory activity of test compounds on NCI-H1417 cell proliferation.
Experimental materials: RPMI 1640 medium, fetal bovine serum, Promega CellTiter-Glo reagent. The NCI-H1417 cell line was purchased from ATCC. Envision multilabel plate reader (PerkinElmer).
Experimental method: The compounds were dissolved to 10 mM and 5-fold diluted with DMSO in the compound plates, starting with a concentration of 2 mM. 3-fold serial dilution was performed with Bravo to 10 concentrations. Then 250 nL of the compound solution was transferred to the upper and lower double duplicate wells of a blank 384 cell plate with Echo. To each well containing the transferred 250 nL of DMSO/compound was added a cell suspension of 1000 cells/50 μL per well, and the compound was diluted 200-fold, i.e., resulting in an initial working concentration of 10 μM. The cell plate was incubated in a carbon dioxide incubator for 10 days. To the cell plate was added 25 μL of Promega CellTiter-Glo reagent per well and the mixture was shaken for 10 minutes at room temperature to stabilize the luminescence signal. Readings were performed on a PerkinElmer Envision multilabel plate reader.
Data analysis: Raw data were converted into inhibition rate using the formula: (Max−Ratio)/(Max−Min)*100%. The IC50 values could then be derived from four-parameter curve fitting. (derived from 205 mode in XLFIT5, iDBS)
The compounds were tested for inhibitory activity of compounds on NCI-H1417 cell proliferation, and the results are shown in Table 3.

[3] = target: hERG potassium ion channels (Homo sapiens (Human), UniProt Q12809); experiment: Experiment 4: hERG potassium ion channel inhibition, automated patch clamp (Qpatch), CHO-hERG cells; assay type: cell-based; conditions: highest test concentration 40 μM
Chain of hERG potassium ion channels (Q12809 whole entry): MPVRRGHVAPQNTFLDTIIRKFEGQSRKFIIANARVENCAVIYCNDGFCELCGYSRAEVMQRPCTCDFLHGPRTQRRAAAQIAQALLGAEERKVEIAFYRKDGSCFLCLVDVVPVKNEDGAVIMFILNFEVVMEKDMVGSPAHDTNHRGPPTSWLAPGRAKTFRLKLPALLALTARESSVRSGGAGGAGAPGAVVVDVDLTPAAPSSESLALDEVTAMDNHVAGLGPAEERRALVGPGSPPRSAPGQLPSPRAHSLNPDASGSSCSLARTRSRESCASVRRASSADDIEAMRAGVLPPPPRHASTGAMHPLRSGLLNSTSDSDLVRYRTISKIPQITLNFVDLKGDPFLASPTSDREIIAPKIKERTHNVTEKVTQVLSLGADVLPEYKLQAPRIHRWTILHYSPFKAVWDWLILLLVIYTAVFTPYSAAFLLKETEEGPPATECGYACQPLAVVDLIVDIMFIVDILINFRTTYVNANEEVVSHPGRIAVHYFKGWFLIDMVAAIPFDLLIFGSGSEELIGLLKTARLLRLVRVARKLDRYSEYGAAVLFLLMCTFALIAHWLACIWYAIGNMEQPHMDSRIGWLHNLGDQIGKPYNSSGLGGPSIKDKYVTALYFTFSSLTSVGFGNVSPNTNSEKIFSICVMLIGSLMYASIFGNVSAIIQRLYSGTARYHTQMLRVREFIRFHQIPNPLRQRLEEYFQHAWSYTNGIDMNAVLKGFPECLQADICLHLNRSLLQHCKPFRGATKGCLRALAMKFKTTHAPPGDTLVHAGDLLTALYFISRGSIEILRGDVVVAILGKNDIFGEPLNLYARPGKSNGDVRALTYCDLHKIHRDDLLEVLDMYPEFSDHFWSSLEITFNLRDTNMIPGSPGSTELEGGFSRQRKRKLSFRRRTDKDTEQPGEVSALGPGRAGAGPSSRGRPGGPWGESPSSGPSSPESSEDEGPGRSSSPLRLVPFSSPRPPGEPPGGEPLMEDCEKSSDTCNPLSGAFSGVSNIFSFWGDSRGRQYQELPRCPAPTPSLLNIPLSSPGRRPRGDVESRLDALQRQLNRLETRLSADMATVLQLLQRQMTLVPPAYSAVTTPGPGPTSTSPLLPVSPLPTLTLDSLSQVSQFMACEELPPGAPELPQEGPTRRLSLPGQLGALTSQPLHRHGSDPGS
Description: Experiment 4: hERG Potassium Ion Channel Inhibition Assay
Experimental purpose: To test the effects of the test examples on hERG potassium ion channels using an automated patch clamp method.
4.1.1 CHO-hERG cells were cultured in a 175 cm^2 culture flask. When the cell density grew from 60% to 80%, the culture medium was removed. The cells were washed once with 7 mL of PBS (Phosphate Buffered Saline), and then 3 mL of Detachin cell dissociation reagent was added thereto for digestion.
4.1.2 After the digestion was completed, 7 mL of culture medium was added thereto for neutralization, then the mixture was centrifuged, the supernatant was aspirated, and then 5 mL of culture medium was added thereto for resuspension to ensure a cell density of 2×10^6/mL to 5×10^6/ML.
The single-cell high-resistance sealing and whole-cell modeling formation processes were all automatically completed by the Qpatch instrument of the Shanghai Institute of Materia Medica, Chinese Academy of Sciences. After obtaining the whole-cell recording modeling, the cells were clamped at −80 mV, and before a 5-second +40 mV depolarizing stimulus was given, a 50-millisecond −50 mV prepulse was first given, then the voltage was repolarized to −50 mV and holden for 5 seconds, and finally returned to −80 mV. This voltage stimulus was applied every 15 seconds, recorded for 2 minutes, and then the extracellular fluid was recorded for 5 minutes, and then the administration process was initiated, with compound concentrations starting at the lowest test concentration. The voltage stimulus was given for 2.5 minutes for each test concentration, and after all concentrations had been continuously given, 3 μM the positive control compound, Cisapride, was given. At least 3 cells were tested per concentration (n≥3).
4.4.1 The compound stock solution was diluted with DMSO, and 20 μL of DMSO solution was added with 10 μL of the compound stock solution, and serially diluted 3-fold to 6 DMSO concentrations.
4.4.2 4 μL of 6 DMSO concentrations of compounds were taken respectively and added to 396 μL of extracellular fluid, and the mixture was diluted 100-fold to 6 intermediate concentrations, then 80 μL of 6 intermediate concentrations of compounds was taken and added to 320 μL of extracellular fluid, and the mixture was diluted 5-fold to the final test concentration.
4.4.3 The highest test concentration was 40 μM, and the concentrations were respectively 40, 13.3, 4.4, 1.48, 0.494, and 0.165 μM for a total of six concentrations.
4.4.5 The preparation of the compound was completed by the Bravo instrument throughout the dilution process.
Experimental data were analyzed by GraphPad Prism 5.0 software.

[4] = Experiment 3: pharmacokinetic evaluation in CD-1 mice (IV and oral); assay type: in vivo; conditions: mouse, plasma, male CD-1 mice
Description: Experiment 3: Pharmacokinetic Evaluation of Compounds
Experimental purpose: To test the pharmacokinetics of compounds in CD-1 mice in vivo
CD-1 mice (male/female, 7 to 9 weeks old, Shanghai SLAC)
The pharmacokinetic characteristics of the compounds in rodents after intravenous injection and oral administration were tested according to the standard protocol. In the experiment, the candidate compound was formulated into clear solutions, and a single intravenous injection and oral administration were given to mice. The vehicle for intravenous injection and oral administration was a mixed vehicle composed of 10% dimethyl sulfoxide and 90% hydroxypropyl β-cyclodextrin with a content of 10%. In this project, four male/female CD-1 mice were used. Two mice were injected intravenously at a dose of 1 mg/kg, and plasma samples were collected at 0.083, 0.25, 0.5, 1, 2, 4, 8, and 24 hours after administration; the other two were administered orally by gavage at a dose of 2 mg/kg, and plasma samples were collected at 0.25, 0.5, 1, 2, 4, 8, and 24 hours after administration. The samples were centrifuged at 3200 g for 10 minutes at 4° C., and plasma samples were obtained by separating the supernatant. A methanol solution containing internal standard with 20 times the volume of the sample was added thereto to precipitate the protein, and the mixture was centrifuged at 12000 g for 15 minutes at 4° C. 50 μL of the supernatant was taken and transferred to a 96-well plate and centrifuged again. The supernatant was taken for sampling. The plasma concentration was quantitatively analyzed using LC-MS/MS analysis method, and pharmacokinetic parameters, such as peak concentration (Cmax), clearance rate (CL), half-life (T1/2), volume of distribution at steady state (Vdss), area under drug-time curve (AUC0-last), bioavailability (F).

| Compound | IC50 [1] [nM] | IC50 [2] [nM] | IC50 [3] [µM] | further results |
| --- | --- | --- | --- | --- |
| CC(C)(O)CN1Cc2cc(-c3sc(C(=O)N4CCC[C@@H](N)C4)cc3-c3ccc(C#N)c(F)c3)ccc2C1=O [Compound 59] | 43.1 | 13.2 | > 40 |  |
| CC(C)(O)Cn1cc2cc(-c3sc(C(=O)N4CCC[C@@H](N)C4)cc3-c3ccc(C#N)c(F)c3)cnc2n1 [Compound 61] |  |  | > 40 |  |
| N#Cc1ccc(-c2cc(C(=O)N3CCC[C@@H](N)C3)sc2-c2ccc3nncn3c2)cc1F [Compound 67] |  |  | > 40 |  |
| N#Cc1ccc(-c2cc(C(=O)N3CCC[C@@H](N)C3)sc2-c2ccc3nn(C4COC4)cc3c2)cc1F [Compound 70] |  | 9.88 | 18.7 |  |
| N#Cc1ccc(-c2cc(C(=O)N3CCC[C@@H](N)C3)sc2-c2ccn3cnnc3c2)cc1F [Compound 76] |  |  | > 40 |  |
| N#Cc1ccc(-c2cc(C(=O)N3CCC[C@@H](N)C3)sc2-c2ccc3oncc3c2)cc1F [Compound 77] |  |  | > 40 |  |
| CC1(O)CN(C(=O)c2ccc(-c3sc(C(=O)N4CCC[C@@H](N)C4)cc3-c3ccc(C#N)c(F)c3)cc2)C1 [Compound 81] |  |  | > 40 |  |
| CC(C)(O)Cn1nnc2cc(-c3sc(C(=O)N4C5CCC4C(N)C5)cc3-c3ccc(C#N)c(F)c3)ccc21 (stereo not shown) [Hydrochloride of compound 16] | 7.51 | 0.17 | > 40 |  |
| N#Cc1ccc(-c2cc(C(=O)N3CCC[C@@H](N)C3)sc2-c2ccc(OCC(=O)O)c(F)c2)cc1F [Hydrochloride of compound 30] | 122 |  | > 40 |  |
| Cn1cc(-c2sc(C(=O)N3CCC[C@@H](N)C3)cc2-c2ccc(C#N)c(F)c2)ccc1=O [Hydrochloride of compound 32] |  |  | > 40 |  |
| N#Cc1ccc(-c2cc(C(=O)N3CCC[C@@H](N)C3)sc2-c2cnc(N)nc2)cc1F [Hydrochloride of compound 45] |  |  | 32.6 |  |
| N#Cc1ccc(-c2cc(C(=O)N3CCC[C@@H](N)C3)sc2-c2ccc3c(c2)CNC3=O)cc1F [Hydrochloride of compound 46] | 81.3 | 19.4 | > 40 |  |
| N#Cc1ccc(-c2cc(C(=O)N3CCC[C@@H](N)C3)sc2-c2ccc(OCC(O)CO)c(F)c2)cc1F (stereo partly shown) [Hydrochloride of compound 54] | 49.9 | 5.11 | > 40 |  |
| Cn1cc2cc(-c3sc(C(=O)N4CCC[C@@H](N)C4)cc3-c3ccc(C#N)c(F)c3)cnc2n1 [Hydrochloride of compound 56] | 109 | 56.8 | > 40 |  |
| N#Cc1ccc(-c2cc(C(=O)N3CCC[C@@H](N)C3)sc2-c2ccc3c(cnn3CC(O)CO)c2)cc1F (stereo partly shown) [Hydrochloride of compound 62] | 30.1 | 11.2 | > 40 |  |

More lines, main results first:

| IC50 [1] [nM] | IC50 [2] [nM] | Compound | IC50 [3] [µM] | further results |
| --- | --- | --- | --- | --- |
| 11.8 | 14.5 | N#Cc1ccc(-c2cc(C(=O)N3CCC[C@@H](N)C3)sc2-c2ccc3nn(C4CC(O)C4)cc3c2)cc1F (stereo partly shown) [Hydrochloride of compound 73] | > 40 |  |
| 20.2 | 16.1 | COC1CC(n2cc3cc(-c4sc(C(=O)N5CCC[C@@H](N)C5)cc4-c4ccc(C#N)c(F)c4)ccc3n2)C1 (stereo partly shown) [Hydrochloride of compound 80] |  | clearance ([4]; IV 1 mg/kg, read-out: Clearance rate CL): 33.7 mL/min/kg; half-life ([4]; IV 1 mg/kg, read-out: Half life T1/2 (IV, h) (converted)): 1.93 h; Vd ([4]; IV 1 mg/kg, read-out: Volume of distribution at steady state Vdss): 4.89 L/kg; bioavailability ([4]; PO 2 mg/kg vs IV 1 mg/kg, read-out: Bioavailability F (%)): 31.9%; AUC(0-t) ([4]; PO 2 mg/kg, read-out: Area under drug-time curve AUC0-last PO): 0.576 µM·h; Cmax ([4]; single dose, oral 2 mg/kg, read-out: Peak concentration Cmax): 109 nM |
| 3.01 | 1.73 | N#Cc1ccc(-c2cc(C(=O)N3CCC[C@@H](N)C3)sc2-c2ccc3c(c2)nnn3CC2(O)CCC2)cc1F [Hydrochloride of compound 82] | 14.9 |  |
| 16 | 10.3 | CC1(O)CC(n2cc3cc(-c4sc(C(=O)N5CCC[C@@H](N)C5)cc4-c4ccc(C#N)c(F)c4)ccc3n2)C1 (stereo partly shown) [Hydrochloride of compound 86] | 21 |  |
| 87.6 | 39.4 | N#Cc1ccc(-c2cc(C(=O)N3CCC[C@@H](N)C3)sc2-c2ccc3nn([C@H]4COCC[C@@H]4O)cc3c2)cc1F [Hydrochloride of compound 88] | 21.9 |  |
| 15.2 | 1.61 | N#Cc1ccc(-c2cc(C(=O)N3CCC[C@@H](N)C3)sc2-c2ccc3nn(CC4(O)CC4)cc3c2)cc1F [Hydrochloride of compound 89] | 22.7 |  |
| 37.3 | 37.6 | N#Cc1ccc(-c2cc(C(=O)N3CCC[C@@H](N)C3)sc2-c2ccc3c(c2)nnn3[C@H]2COCC[C@@H]2O)cc1F [Hydrochloride of compound 90] | > 40 |  |
| 13 | 0.83 | CC(C)(O)Cn1nnc2cc(-c3sc(C(=O)N4CCC[C@@H](N)C4)cc3-c3ccc(C#N)c(F)c3)c(F)c(F)c21 [Hydrochloride of compound 91] | > 40 |  |
| 98.4 | 32.8 | N#Cc1ccc(-c2cc(C(=O)N3CCC[C@@H](N)C3)sc2-c2cc3cn([C@H]4COCC[C@@H]4O)nc3cc2F)cc1F [Hydrochloride of compound 94] | > 40 |  |
| 17.6 | 2.12 | CC(C)(O)Cn1nnc2cc(-c3sc(C(=O)N4CCCNCC4)cc3-c3ccc(C#N)c(F)c3)c(F)c(F)c21 [Hydrochloride of compound 111] | 21.5 |  |

— patent US20240199571A1, “THIOPHENE COMPOUND AND APPLICATION THEREOF” (MEDSHINE DISCOVERY INC., priority 2021, published 2024)
